From patent US6008247A, “2,4-bis[(4-amidino)phenyl]furans as anti-Pneumocystis carinii agents” (The University of North Carolina at Chapel Hill, priority 1998, dated 1999) come the findings set out here.

Counter-ions that a name gives are not always drawn.

The nature of series [1]: Toxicity in the immunosuppressed rat model of Pneumocystis carinii pneumonia. The settings on record: iv. The class given is in vivo. An excerpt: Data obtained with pentamidine, a compound currently used clinically for treatment of PCP, are included for comparison.
^c) Evluation of iv dosage of the furon dicatons against P. carinii i
rats as descibed in Boykin, supra.

Series [2] relates to duplex oligomer d(CGCGAATTCGCG)2 (A2 T2). Briefly: Thermal melting with the duplex oligomer, ranking of relative DNA binding affinities. Conditions: duplex oligomer A2T2. An excerpt: (§1) Table 2 contains thermal melting results from evaluation of the interaction of compounds 3, 5 and 7 with the DNA duplex polymer poly(dA-dT). In order to rank the relative binding affinities for interactions with DNA, the duplex oligomer d(CGCGAATTCGCG)2 (A2 T2) was employed. […] The increase in melting temperature on complex formation with the furan dications are related to the binding affinities of these molecules with nucleic acid. This enhanced DNA affinity of the N-alkyl substituted amidines is though to the in large part due to additional non-bonded interactions between the alkyl groups and the walls of the minor groove.
^b) Increase in thermal melting of the oligomer […], see

Another series has as its system Pneumocystis carinii. Briefly: In vivo evaluation on intravenous administration against P. carinii in the immunosuppressed rat model. Conditions: saline = 100.0.
For series [3], the system named is DNA duplex polymer poly(dA-dT). Nature of the series: Thermal melting, interaction with the DNA duplex polymer poly(dA-dT). The class given is binding.
Excerpt: as §1
^a) Increase in thermal melting of polyA-- polyT, see Boykin, […]

As for `N=C(NC1CCCC1)c1ccc(-c2coc(-c3ccc(C(=N)NC4CCCC4)cc3)c2)cc1` [Compound 4, 2,4-Bis[4-{N-(cyelopentylamidino)phenyl}]furan], the Toxicity in series [1] (10.0 umol/kg/d) was determined as 0. The “ΔTM (oligomer), increase in thermal melting of the oligomer” value (shortened to “ΔTM (oligomer), increase”) in series [2] was 13.6. The Cysts/g lung in the series on Pneumocystis carinii (1.0 umol/kg/d) is on record as 3.21 % of control; with Pneumocystis carinii (10.0 umol/kg/d), 0.06 % of control. The “ΔTm (DNA), increase in thermal melting of polyA-polyT” value (“ΔTm (DNA), increase” below) in series [3] was 20.4.

As to `CC(C)NC(=N)c1ccc(-c2coc(-c3ccc(C(=N)NC(C)C)cc3)c2)cc1` [Compound 2, 2,4-Bis[4-{N-(i-propylamidino)phenyl}]furan], the Toxicity in series [1] (0.25 umol/kg/d), in series [1] (1.0 umol/kg/d), in series [1] (5.0 umol/kg/d) and in series [1] (10.0 umol/kg/d) was 0 in each case. Moreover, the “ΔTM (oligomer), increase” value in series [2] is listed as 10.9. In addition, the Cysts/g lung with Pneumocystis carinii (0.25 umol/kg/d) was 38.20 % of control; with Pneumocystis carinii (1.0 umol/kg/d), 0.84 % of control; in the series on Pneumocystis carinii (5.0 umol/kg/d), 0.0003 % of control; in the series with Pneumocystis carinii (10.0 umol/kg/d), 0.03 % of control. In addition, in series [3], the “ΔTm (DNA), increase” value is 17.6.

`N=C(N)c1ccc(-c2coc(-c3ccc(C(=N)N)cc3)c2)cc1` [Compound 1, 2,4-Bis[4-{(amidino)pnehyl}]furan] came in with a Toxicity in series [1] (10.0 umol/kg/d) of 0. In addition, the “ΔTM (oligomer), increase” value in series [2] came out at 9.1. Further, in the series with Pneumocystis carinii (10.0 umol/kg/d), the Cysts/g lung was 0.44 % of control. Further, the “ΔTm (DNA), increase” value in series [3] is 19.0.

`N=C(N)c1ccc(OCCCCCOc2ccc(C(=N)N)cc2)cc1` [pentamidine, reference compound]: the Cysts/g lung in the series with Pneumocystis carinii (22.0 umol/kg/d) is reported as 1.46 % of control.

For the molecule `c1cc(-c2coc(-c3ccc(C4=NCCN4)cc3)c2)ccc1C1=NCCN1` [Compound 5, 2,4-Bis[4,5-dihydro-1H-imidazol-2-yl)phenyl]furan Dihydrochloride], in series [2], the “ΔTM (oligomer), increase” value turned out to be 7.2. Besides, the “ΔTm (DNA), increase” value in series [3] was 16.8.

On to `CC(C)CNC(=N)c1ccc(-c2coc(-c3ccc(C(=N)NCC(C)C)cc3)c2)cc1` [Compound 3, 2-,4-Bis[4-{-(i-butylamidino)phenyl}]furan], for which the “ΔTM (oligomer), increase” value in series [2] worked out at 9.3. For the same molecule, the “ΔTm (DNA), increase” value in series [3] stood at 20.4.
